Test [1] relates to TGF-β-stimulated SMAD3 phosphorylation in BEAS-2B cells. Put plainly: Cellular ALK5 potency assay, inhibition of TGF-β stimulated pSMAD3 formation in BEAS-2B cells. It counts as cell-based. The conditions noted are these: Homo sapiens, inhibition of TGF-β (10 ng/mL) stimulated pSMAD3 formation, 1 hour compound incubation, read-out: BEAS2B pIC50 (converted). The method in brief: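 Phospho-SMAD3 was quantified by AlphaLISA in lysates of human lung epithelial BEAS-2B cells. Compound was added 1 h (37 °C, HEPES/BSA-supplemented HBSS) before a 30 min challenge with 10 ng/mL TGF-β. Values are pIC50 relative to stimulated cells without compound.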

Test [2] deals with T1, recombinant human ALK5 (TGF-βR1) protein (Homo sapiens, UniProt P36897).
T1 construct: purchased Life Technologies PR9075A
T1 sequence (P36897 34-503): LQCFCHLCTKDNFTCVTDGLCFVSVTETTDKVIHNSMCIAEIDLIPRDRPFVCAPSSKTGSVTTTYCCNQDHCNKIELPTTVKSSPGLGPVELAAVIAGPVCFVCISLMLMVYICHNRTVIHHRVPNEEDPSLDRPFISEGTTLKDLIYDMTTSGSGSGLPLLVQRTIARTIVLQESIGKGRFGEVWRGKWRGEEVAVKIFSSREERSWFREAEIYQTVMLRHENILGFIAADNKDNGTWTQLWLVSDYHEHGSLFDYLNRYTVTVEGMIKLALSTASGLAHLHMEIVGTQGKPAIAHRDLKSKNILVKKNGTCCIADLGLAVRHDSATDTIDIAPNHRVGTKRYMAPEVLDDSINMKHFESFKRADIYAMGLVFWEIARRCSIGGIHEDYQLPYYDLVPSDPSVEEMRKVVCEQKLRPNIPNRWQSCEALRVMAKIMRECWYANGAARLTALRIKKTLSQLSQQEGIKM
Put plainly: Biochemical ALK5 (TGF-βR1) assay to measure pKi (LANCE Ultra ULight kinase assay). The conditions noted are these: apparent pKi, converted from pIC50 using the Cheng-Prusoff equation. In a few lines: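 TR-FRET kinase format: compound dose range 10 μM–25 pM equilibrated 60 min with human ALK5 and ULight-labelled topoisomerase 2α peptide in HEPES/MgCl2 buffer pH 7.5 with DTT. Reaction started with ATP (125 μM stock, 5× final), 60 min at 37° C, stopped with EDTA/Eu-anti-phospho antibody; pKi derived from pIC50 via Cheng-Prusoff.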
(In TR-FRET formats the signal depends on donor and acceptor labels being close together.)

In the case of `CN1CC=C(c2cnc3ccc(-c4c[nH]nc4-c4cc(Cl)ccc4F)nc3c2)C1` [Compound 1-97, 2-[3-(5-chloro-2-fluoro-phenyl)-1H-pyrazol-4-yl]-7-(1-methyl-2,5-dihydropyrrol-3-yl)-1,5-naphthyridine], the IC50 in test [1] was at most 20 nM. For the same molecule, the Ki in test [2] is at most 0.0316 nM.
In the same order, the values of `NC1CCC(c2cnc3ccc(-c4c[nH]nc4-c4cc(Cl)ccc4F)nc3c2)CC1` (centres unmarked) [Compound 1-98, 4-(6-(3-(5-chloro-2-fluorophenyl)-1H-pyrazol-4-yl)-1,5-naphthyridin-3-yl)cyclohexan-1-amine] are 200 to 1260 nM and 3.98 to 31.6 nM.
In the same order, the values of `Fc1ccc(Cl)cc1-c1n[nH]cc1-c1ccc2ncc(C3CCNC3)cc2n1` (centres unmarked) [Compound 1-99, 2-[3-(5-chloro-2-fluoro-phenyl)-1H-pyrazol-4-yl]-7-pyrrolidin-3-yl-1,5-naphthyridine] are 200 to 1260 nM and 3.98 to 31.6 nM.
As for `Fc1ccc(Cl)cc1-c1n[nH]cc1-c1ccc2ncc(-c3nc4n(n3)CCNC4)cc2n1` [Compound 1-100, 2-(3-(5-chloro-2-fluorophenyl)-1H-pyrazol-4-yl)-7-(5,6,7,8-tetrahydro-[1,2,4]triazolo[1,5-a]pyrazin-2-yl)-1,5-naphthyridine], the IC50 in test [1] is 25.1 to 158 nM. In addition, in test [2], the Ki was 0.0398 to 0.316 nM.
The like results for `O=Cc1cnc2ccc(-c3c[nH]nc3-c3cc(Cl)ccc3F)nc2c1` [Compound 1-101, 6-[3-(5-chloro-2-fluoro-phenyl)-1H-pyrazol-4-yl]-1,5-naphthyridine-3-carbaldehyde] were, in that order, at most 20 nM and 0.398 to 3.16 nM.
In the same order, the values of `Oc1cnc2ccc(-c3c[nH]nc3-c3cc(Cl)ccc3F)nc2c1` [Compound 1-102, 6-[3-(5-chloro-2-fluoro-phenyl)-1H-pyrazol-4-yl]-1,5-naphthyridin-3-ol] are at most 20 nM and 0.398 to 3.16 nM.
The like results for `CCOC(=O)Cn1cc(-c2cnc3ccc(-c4c[nH]nc4-c4cc(Cl)ccc4F)nc3c2)nn1` [Compound 1-103, ethyl 2-[4-[6-[3-(5-chloro-2-fluoro-phenyl)-1H-pyrazol-4-yl]-1,5-naphthyridin-3-yl]triazol-1-yl]acetate] were, in that order, 25.1 to 158 nM and at most 0.0316 nM.
With `COC(=O)c1coc(-c2cnc3ccc(-c4c[nH]nc4-c4cc(Cl)ccc4F)nc3c2)n1` [Compound 1-104, methyl 2-[6-[3-(5-chloro-2-fluoro-phenyl)-1H-pyrazol-4-yl]-1,5-naphthyridin-3-yl]oxazole-4-carboxylate], the IC50 in test [1] is 25.1 to 158 nM. Moreover, in test [2], the Ki is 0.398 to 3.16 nM.
In the same order, the values of `NC(=O)c1coc(-c2cnc3ccc(-c4c[nH]nc4-c4cc(Cl)ccc4F)nc3c2)n1` [Compound 1-105, 2-[6-[3-(5-chloro-2-fluoro-phenyl)-1H-pyrazol-4-yl]-1,5-naphthyridin-3-yl]oxazole-4-carboxamide] are 25.1 to 158 nM and 0.0398 to 0.316 nM.
The like results for `Fc1ccc(Cl)cc1-c1n[nH]cc1-c1ccc2ncc(-c3cnc4n3CCN4)cc2n1` [Compound 1-106, 2-[3-(5-chloro-2-fluoro-phenyl)-1H-pyrazol-4-yl]-7-(6,7-dihydro-5H-imidazo[1,2-a]imidazol-3-yl)-1,5-naphthyridine] were, in that order, 25.1 to 158 nM and at most 0.0316 nM.
As for `Fc1ccc(Cl)cc1-c1n[nH]cc1-c1ccc2ncc(-c3cnc4n3CCNC4)cc2n1` [Compound 1-107, 2-[3-(5-chloro-2-fluoro-phenyl)-1H-pyrazol-4-yl]-7-(5,6,7,8-tetrahydroimidazo[1,2-a]pyrazin-3-yl)-1,5-naphthyridine], the IC50 in test [1] is 25.1 to 158 nM. Also, the Ki in test [2] was 0.0398 to 0.316 nM.
In the same order, the values of `Fc1ccc(Cl)cc1-c1n[nH]cc1-c1ccc2ncc(-c3cnn4c3CNCC4)cc2n1` [Compound 1-108, 2-[3-(5-chloro-2-fluoro-phenyl)-1H-pyrazol-4-yl]-7-(4,5,6,7-tetrahydropyrazolo[1,5-a]pyrazin-3-yl)-1,5-naphthyridine] are at most 20 nM and at most 0.0316 nM.
For `Fc1ccc(Cl)cc1-c1n[nH]cc1-c1ccc2ncc(-c3nnn4c3CNCC4)cc2n1` [Compound 1-109, 2-[3-(5-chloro-2-fluoro-phenyl)-1H-pyrazol-4-yl]-7-(4,5,6,7-tetrahydrotriazolo[1,5-a]pyrazin-3-yl)-1,5-naphthyridine], the IC50 in test [1] was 25.1 to 158 nM. For the same molecule, the Ki in test [2] is 0.0398 to 0.316 nM.
The like results for `Fc1ccc(Cl)cc1-c1n[nH]cc1-c1ccc2ncc(-c3nnc4n3CCN4)cc2n1` [Compound 1-110, 2-[3-(5-chloro-2-fluoro-phenyl)-1H-pyrazol-4-yl]-7-(6,7-dihydro-5H-imidazo[2,1-c][1,2,4]triazol-3-yl)-1,5-naphthyridine] were, in that order, 200 to 1260 nM and 0.0398 to 0.316 nM.
`Fc1ccc(Cl)cc1-c1n[nH]cc1-c1ccc2ncc(-c3cn(Cc4c[nH]cn4)nn3)cc2n1` [Compound 1-111, 2-[3-(5-chloro-2-fluoro-phenyl)-1H-pyrazol-4-yl]-7-[1-(1H-imidazol-4-ylmethyl)triazol-4-yl]-1,5-naphthyridine]: in test [1], the IC50 was 25.1 to 158 nM. In addition, in test [2], the Ki was at most 0.0316 nM.
As for `Fc1ccc(Cl)cc1-c1n[nH]cc1-c1ccc2ncc(-c3cn(Cc4cnc5c(c4)CNCC5)nn3)cc2n1` [Compound 1-112, 2-[3-(5-chloro-2-fluoro-phenyl)-1H-pyrazol-4-yl]-7-[1-(5,6,7,8-tetrahydro-1,6-naphthyridin-3-ylmethyl)triazol-4-yl]-1,5-naphthyridine], the IC50 in test [1] is 25.1 to 158 nM. Further, in test [2], the Ki is 0.0398 to 0.316 nM.
In the case of `Fc1ccc(Cl)cc1-c1n[nH]cc1-c1ccc2ncc(-c3ncn4c3CNCC4)cc2n1` [Compound 1-113, 2-[3-(5-chloro-2-fluoro-phenyl)-1H-pyrazol-4-yl]-7-(5,6,7,8-tetrahydroimidazo[1,5-a]pyrazin-1-yl)-1,5-naphthyridine], the IC50 in test [1] was 25.1 to 158 nM. Also, the Ki in test [2] was 0.0398 to 0.316 nM.
In the same order, the values of `Fc1ccc(Cl)cc1-c1n[nH]cc1-c1ccc2ncc(-c3ncc4n3CCNC4)cc2n1` [Compound 1-114, 2-[3-(5-chloro-2-fluoro-phenyl)-1H-pyrazol-4-yl]-7-(5,6,7,8-tetrahydroimidazo[1,5-a]pyrazin-3-yl)-1,5-naphthyridine] are 25.1 to 158 nM and 0.0398 to 0.316 nM.
The like results for `Fc1ccc(Cl)cc1-c1n[nH]cc1-c1ccc2ncc(-c3[nH]nc4c3CNCC4)cc2n1` [Compound 1-115, 2-[3-(5-chloro-2-fluoro-phenyl)-1H-pyrazol-4-yl]-7-(4,5,6,7-tetrahydro-2H-pyrazolo[4,3-c]pyridin-3-yl)-1,5-naphthyridine] were, in that order, 25.1 to 158 nM and 0.0398 to 0.316 nM.
For `Fc1ccc(Cl)cc1-c1n[nH]cc1-c1ccc2ncc(-c3cn4c(n3)CNCC4)cc2n1` [Compound 1-116, 2-[3-(5-chloro-2-fluoro-phenyl)-1H-pyrazol-4-yl]-7-(5,6,7,8-tetrahydroimidazo[1,2-a]pyrazin-2-yl)-1,5-naphthyridine], the IC50 in test [1] was 25.1 to 158 nM. The Ki in test [2] is 0.0398 to 0.316 nM.
The like results for `Fc1ccc(Cl)cc1-c1n[nH]cc1-c1ccc2ncc(NCC3CCCNC3)cc2n1` (centres unmarked) [Compound 1-117, 6-[3-(5-chloro-2-fluoro-phenyl)-1H-pyrazol-4-yl]-N-(3-piperidylmethyl)-1,5-naphthyridin-3-amine] were, in that order, 200 to 1260 nM and 0.398 to 3.16 nM.
Take `Fc1ccc(Cl)cc1-c1n[nH]cc1-c1ccc2ncc(-c3nnn4c3NCCC4)cc2n1` [Compound 1-118, 2-[3-(5-chloro-2-fluoro-phenyl)-1H-pyrazol-4-yl]-7-(4,5,6,7-tetrahydrotriazolo[1,5-a]pyrimidin-3-yl)-1,5-naphthyridine]: the IC50 in test [1] is at most 20 nM. In addition, in test [2], the Ki was 0.0398 to 0.316 nM.
The like results for `Fc1ccc(Cl)cc1-c1n[nH]cc1-c1ccc2ncc(-c3nc(C(F)(F)F)n4c3CNCC4)cc2n1` [Compound 1-119, 2-[3-(5-chloro-2-fluoro-phenyl)-1H-pyrazol-4-yl]-7-[3-(trifluoromethyl)-5,6,7,8-tetrahydroimidazo[1,5-a]pyrazin-1-yl]-1,5-naphthyridine] were, in that order, 25.1 to 158 nM and 0.398 to 3.16 nM.
The like results for `Cc1nn2c(c1-c1cnc3ccc(-c4c[nH]nc4-c4cc(Cl)ccc4F)nc3c1)NCCC2` [Compound 1-120, 2-[3-(5-chloro-2-fluoro-phenyl)-1H-pyrazol-4-yl]-7-(2-methyl-4,5,6,7-tetrahydropyrazolo[1,5-a]pyrimidin-3-yl)-1,5-naphthyridine] were, in that order, 25.1 to 158 nM and 0.398 to 3.16 nM.
Turning to `Fc1ccc(Cl)cc1-c1n[nH]cc1-c1ccc2ncc(-c3[nH]nc4c3CCNC4)cc2n1` [Compound 1-121, 2-[3-(5-chloro-2-fluoro-phenyl)-1H-pyrazol-4-yl]-7-(4,5,6,7-tetrahydro-2H-pyrazolo[3,4-c]pyridin-3-yl)-1,5-naphthyridine], the IC50 in test [1] is 25.1 to 158 nM. Also, in test [2], the Ki was 0.0398 to 0.316 nM.
